How the values were obtained:
[1] = system: Wild type Saccharomyces cerevisiae cells (strain BY4741); assay: Growth of yeast cells in the presence or absence of VPA and/or NaCl (absorbance at 550 nm); format: cell-based; details: single agent (VPA or NaCl) in synthetic medium, 30° C.
Experimental: The combined effect of osmotic stress and valproate (VPA) is deleterious to yeast cells. Wild type Saccharomyces cerevisiae cells (strain BY4741) were grown in synthetic medium in the presence or absence of VPA and/or NaCl. Cells were incubated at 30° C., and growth was monitored spectrophotometrically by measuring absorbance at 550 nm.

[2] = system: Candida albicans (Strain Sc 5314); assay: Hyphae formation in Candida cells, serum-induced (percentage of cells forming hyphal structures); format: cell-based; details: in the presence of VPA
Experimental: Hyphae formation is at its peak after 3 hours of incubation at 37° C. at 200 rpm. An overnight culture of Candida albicans (Strain Sc 5314) was prepared using serum-free RPMI-64 medium. Cells were pelleted at 7,500×g and resuspended in RPMI-64 supplemented with 10% Fetal Bovine Serum (FBS) to induce hyphae formation. Cultures were incubated at 37° C. in a rotary shaker at 200 rpm. Samples were drawn out at one-hour intervals and observed for development of hyphal structures.
(§1) An overnight culture of C. albicans was prepared using serum-free RPMI-64 medium. Cells were pelleted at 7,500×g and resuspended in RPMI-64/10% FBS with or without 0.1M NaCl and/or 2 mM VPA as indicated. Cultures were incubated at 37° C. in a rotary shaker at 200 rpm for 3 hours. For each sample, 300-500 cells were counted and the percentage of cells forming hyphal structures was calculated. Values represent the mean of three independent experiments±S.E. (error bars).
as §1, with “sorbitol” for “NaCl”, “Values represent the mean of three independent experiments±S.E. (error bars).” left out

SMILES | Growth decreased [1] | Transformation of Candida yeast cells into hyphae forming cells [2]
[Cl-].[Na+] [NaCl, sodium chloride] | 50% | 
CCCC(CCC)C(=O)O [VPA, Valproic acid (di-n-propyl acetic acid)] | 50% | greatly reduced
